Measurements published in PubChem BioAssay (NCI).
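Results reflect a 48-hour exposure of cells in 96-well plates to compound at five concentrations. At the GI50, growth is halved. At the TGI there is no net growth.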

How the values were obtained:
Test in all cases: growth of human tumour cells (NCI), 48 h
[1] = test system: 786-0 renal
[2] = test system: A498 renal
[3] = test system: A549 NSCLC
[4] = test system: ACHN renal
[5] = test system: BT-549 breast
[6] = test system: CAKI-1 renal
[7] = test system: CCRF-CEM leukemia
[8] = test system: COLO 205 colon
[9] = test system: DU-145 prostate
[10] = test system: EKVX NSCLC
[11] = test system: HCC-2998 colon
[12] = test system: HCT-116 colon
[13] = test system: HCT-15 colon
[14] = test system: HL-60(TB) leukemia
[15] = test system: HOP-62 NSCLC
[16] = test system: HOP-92 NSCLC
[17] = test system: HS 578T breast
[18] = test system: IGROV1 ovarian
[19] = test system: K-562 leukemia
[20] = test system: KM12 colon
[21] = test system: LOX IMVI melanoma
[22] = test system: M14 melanoma
[23] = test system: MALME-3M melanoma
[24] = test system: MCF7 breast
[25] = test system: MDA-MB-231 breast
[26] = test system: MDA-MB-435
[27] = test system: MOLT-4 leukemia
[28] = test system: NCI-H226 lung
[29] = test system: NCI-H23 lung
[30] = test system: NCI-H460 lung
[31] = test system: NCI-H522 lung
[32] = test system: NCI/ADR-RES ovarian
[33] = test system: OVCAR-3 ovarian
[34] = test system: OVCAR-4 ovarian
[35] = test system: OVCAR-5 ovarian
[36] = test system: OVCAR-8 ovarian
[37] = test system: PC-3 prostate
[38] = test system: RPMI-8226 leukemia
[39] = test system: RXF 393 renal
[40] = test system: SF-268 CNS
[41] = test system: SF-295 CNS
[42] = test system: SF-539 CNS
[43] = test system: SK-MEL-2 melanoma
[44] = test system: SK-MEL-28 melanoma
[45] = test system: SK-MEL-5 melanoma
[46] = test system: SK-OV-3 ovarian
[47] = test system: SN12C renal
[48] = test system: SNB-19 CNS
[49] = test system: SNB-75 CNS
[50] = test system: SR leukemia
[51] = test system: SW-620 colon
[52] = test system: T-47D breast
[53] = test system: TK-10 renal
[54] = test system: U251 CNS
[55] = test system: UACC-257 melanoma
[56] = test system: UACC-62 melanoma
[57] = test system: UO-31 renal

In the case of `Cn1cc(-c2nc(-c3c[nH]c4ncccc34)cs2)c2cc(Cl)ccc21`, the GI50 [1] is reported as 4.62 µM, the TGI [1] is reported as greater than 100 µM and the GI50 [2] is reported as 2.61 µM. For the same compound, the TGI [2] was 12.9 µM, the GI50 [3] was 3.94 µM and the TGI [3] was greater than 100 µM. For the same compound, the GI50 [4] was 3.6 µM, the TGI [4] was greater than 100 µM and the GI50 [5] was 27.3 µM. It also gave a TGI [5] greater than 100 µM, a GI50 [6] of 2.65 µM and a TGI [6] of 9.22 µM. For the same compound, the GI50 [7] was 5.51 µM, the TGI [7] was greater than 100 µM and the GI50 [8] was 3.74 µM. For the same compound, the TGI [8] was 14.6 µM, the GI50 [9] was 5.67 µM and the TGI [9] was greater than 100 µM. It also gave a GI50 [10] of 0.678 µM, a TGI [10] greater than 100 µM and a GI50 [11] of 3.47 µM. It also gave a TGI [11] of 28.3 µM, a GI50 [12] of 4.34 µM and a TGI [12] greater than 100 µM. The GI50 [13] was 2.34 µM, the TGI [13] was greater than 100 µM and the GI50 [14] was 5.93 µM. The TGI [14] was greater than 100 µM, the GI50 [15] was 25.3 µM and the TGI [15] was greater than 100 µM. The GI50 [16] was 2.93 µM, the TGI [16] was 18.4 µM and the GI50 [17] was 4.18 µM. For the same compound, the TGI [17] was 32.7 µM, the GI50 [18] was 4.54 µM and the TGI [18] was greater than 100 µM. For the same compound, the GI50 [19] was 2.76 µM, the TGI [19] was 15.2 µM and the GI50 [20] was 2.26 µM. It also gave a TGI [20] of 7.47 µM, a GI50 [21] of 3.61 µM and a TGI [21] greater than 100 µM. For the same compound, the GI50 [22] was 4.85 µM, the TGI [22] was 40.7 µM and the GI50 [23] was 12.5 µM. The TGI [23] was 56.7 µM, the GI50 [24] was 1.16 µM and the TGI [24] was greater than 100 µM. It also gave a GI50 [25] of 2.65 µM, a TGI [25] of 54.1 µM and a GI50 [26] of 3.47 µM. For the same compound, the TGI [26] was greater than 100 µM, the GI50 [27] was 4.27 µM and the TGI [27] was greater than 100 µM. The GI50 [28] was 11.9 µM, the TGI [28] was greater than 100 µM and the GI50 [29] was 5.01 µM. The TGI [29] was greater than 100 µM, the GI50 [30] was 3.2 µM and the TGI [30] was greater than 100 µM. It also gave a GI50 [31] of 5.56 µM, a TGI [31] greater than 100 µM and a GI50 [32] of 3.94 µM. The TGI [32] was greater than 100 µM, the GI50 [33] was 7.47 µM and the TGI [33] was 29.7 µM. For the same compound, the GI50 [34] was 0.37 µM, the TGI [34] was greater than 100 µM and the GI50 [35] was 1.61 µM. It also gave a TGI [35] greater than 100 µM, a GI50 [36] of 6.04 µM and a TGI [36] greater than 100 µM. It also gave a GI50 [37] of 3.62 µM, a TGI [37] greater than 100 µM and a GI50 [38] of 4.87 µM. For the same compound, the TGI [38] was greater than 100 µM, the GI50 [39] was 4.63 µM and the TGI [39] was greater than 100 µM. The GI50 [40] was 5.28 µM, the TGI [40] was greater than 100 µM and the GI50 [41] was 2.35 µM. It also gave a TGI [41] of 8.75 µM, a GI50 [42] of 12.1 µM and a TGI [42] greater than 100 µM. The GI50 [43] was 13.3 µM, the TGI [43] was greater than 100 µM and the GI50 [44] was 7.43 µM. The TGI [44] was greater than 100 µM, the GI50 [45] was 7.48 µM and the TGI [45] was greater than 100 µM. For the same compound, the GI50 [46] was 16.1 µM, the TGI [46] was greater than 100 µM and the GI50 [47] was 4.72 µM. For the same compound, the TGI [47] was 94.2 µM, the GI50 [48] was 6.61 µM and the TGI [48] was greater than 100 µM. For the same compound, the GI50 [49] was 3.52 µM, the TGI [49] was greater than 100 µM and the GI50 [50] was 6.92 µM. For the same compound, the TGI [50] was greater than 100 µM, the GI50 [51] was 5.3 µM and the TGI [51] was greater than 100 µM. The GI50 [52] was 0.0913 µM, the TGI [52] was 23.6 µM and the GI50 [53] was 5.78 µM. It also gave a TGI [53] greater than 100 µM, a GI50 [54] of 3.85 µM and a TGI [54] of 30.8 µM. For the same compound, the GI50 [55] was 3.26 µM, the TGI [55] was 16.5 µM and the GI50 [56] was 8.8 µM. The TGI [56] was greater than 100 µM, the GI50 [57] was 2.81 µM and the TGI [57] was 75.5 µM.
